We go through one compound from patent publication US7139415B2, “Robotic microscopy systems” (The Regents of the University of California, priority 2001, dated 2006).

Data set [1] has as its system neurons transfected with GFP. Briefly: Automated imaging of survival of GFP-transfected neurons. It is filed as cell-based. As to conditions: kainate added 24 or 76 hours after transfection, compared with untreated sister culture. As for the experimental part:
(§1) If the “loss” of GFP corresponded to the death of a neuron, that the loss of GFP positive neurons could be quantified over time as a measure of neuronal survival. To test whether the “loss” of GFP corresponded to the death of a neuron, the loss of GFP in transfected neurons was measured at the same time as the loss of membrane integrity using a membrane impermeant nuclear dye, ethidium homodimer (EtHD). EtHD staining of cell nuclei is taken as a positive sign of death in the widely used “LIVE-DEAD” assay.
Next, expression of the transfection marker GFP was tested for its affect on survival. FIG. 16E is a graph showing the results of a parallel experiment, in which the survival of transfected neurons in two sister cultures was compared. One culture was imaged once at the end of the experiment (hatched bar) and the other was imaged both a day after transfection and at the end of the experiment (solid bars). The two cultures show nearly identical survival. Finally, if this approach is a valid way to measure neuronal survival, it should be able to detect the effects of molecules known to regulate survival. First, the ability to detect the neurotoxicity of kainic acid was tested. […]
FIG. 16C is a graph showing survival of transfected neurons in three sister cultures was monitored and compared. […]

In a further data set the test system is GFP transfected neurons. It is filed as cell-based. To be noted: in the presence of extracellular EtHD. As for the experimental part:
as §1
FIG. 16A is a panel of photographs exemplifying application of an automated imaging system to the study of neuronal survival, and showing that loss of GFP fluorescence correlates with a loss of membrane integrity and nuclear staining with ethidium homodimer. […] Between 60 (not shown) and 75 minutes, GFP fluorescence is abruptly lost from one neuron and its nucleus stains positively for EtHD. Later, the other transfected neuron in the image loses GFP fluorescence and stains positively for EtHD. […] Thus, overall, the GFP fluorescence of particular neurons disappeared eventually but abruptly, and at that same moment, the nuclei of those neurons stained positively with EtHD (FIG. 16A). Thus, the loss of GFP fluorescence correlated well with one widely accepted measure of cell death.

Regarding `C=C(C)[C@H]1CN[C@H](C(=O)O)[C@H]1CC(=O)O` [kainic acid], the “neuronal survival (number of surviving GFP positive neurons)” value in data set [1] is listed as “significant decrease in neuronal survival”. For the same compound, the “morphology of GFP transfected neurons in response to the neurotoxin” value with GFP transfected neurons was “cell bodies of GFP transfected neurons rounded and swelled and their neurites began to retract”.
